Measurements reported in patent publication US7071228B2, “Method of treating musculoskeletal and connective tissue inflammations” (priority 2002, dated 2006).

Legend:
Type in all cases: in vivo, human
[1] = tested on: osteoarthritis with capsulitis; experiment: Clinical treatment of a patient, Example 1; details: for benefit of earlier therapeutic treatments: before Accutane, Asprin two to five 325 mg pills per day
Procedure: (§1) Example 1 to 3 illustrate clinical effectiveness of the above described treatment method. An initial treatment and a maintenance treatment as described above were prescribed to the patients. It is noted that the patients described in the Examples were in the average weight range, therefore, an average dosage of 40 mg was used. It is noted that all patients were told to totally avoid sun exposure during the initial treatment dosage period and for the first one or two weeks after instituting the maintenance dosage because of sun sensitivity with the use of Accutane®.
A patient in generally good health had the onset of joint complaints in 1988 affecting only the hands. The main location was in the distal interphalangeal joint (IP joint) which had been fractured in 1980. Symptoms were puffiness and swelling with increasing tenderness over the years. The tenderness had become so pronounced that in 1994 they stopped shaking hands because of the pain. In addition they had progressive difficulty making a fist because of swelling and tightness of the fingers.
X-ray examination found thining of joint space and capsular swelling of the interphalangeal joints. Laboratory examination results were normal. The patient was diagnosed with osteoarthritis with capsulitis.
In April 1997 the patient started taking Accutane® (13-cis retanoid acid, Hoffmann-La Roche Inc., Nutley, N.J.) for another medical condition in an initial dosage of about 40 mg Accutane® daily for twenty one days, followed by a maintenance dosage of about 40 mg Accutane® twice a week (on Monday and Friday).

[2] = tested on: inflammatory osteoarthritis and rheumatism; experiment: Clinical treatment of a patient, Example 2; details: for effect of past treatment: person, before Accutane
Procedure: as §1
A person retired Navy Chief Warrant Officer was diagnosed with inflammatory osteoarthritis and rheumatism. The symptoms included joint pains for six to ten years. Initially in 1992 the join pains affected the right hip, and the patient suffered from the hip pain while working. In 1994, the patient developed neck and left shoulder pain. […] Furthermore, the shoulder was diagnosed as a rotator cuff injury. In 1997, the patient's hands became tender when playing golf. The hand condition progressed to puffiness of fingers and a gripping problem with difficulty closing hands. The patient's blood chemistry was normal.
The patient was placed on the 13-cis retanoic acid treatment on May 1, 2002 with an initial dosage about 40 mg Accutane® daily for fourteen days, followed by a maintenance dosage of about 40 mg Accutane® twice a week. […] As a result of such a significant improvement of the physical condition, the patient's golf handicap dropped from eleven (11) to nine (9).

osteoarthritis = experiment: Clinical treatment of a patient, Example 3
Procedure: as §1
A farmer, had more than a ten year history of hand pain involving fingers, and associated with swelling and tenderness of interphalangeal joints. The hand condition made their work and playing golf difficult. The patient was diagnosed with osteoarthritis.
The patient was placed on 13-cis retanoic acid treatment in April of 2001, with an initial dosage of about 40 mg Accutane® daily for twenty one days, followed by a maintenance dosage of about 40 mg Accutane® twice a week. […] The improvements were maintained during a subsequent six month continuation of the maintenance dosage.

[3] = tested on: musculoskeletal and connective tissue inflammations; experiment: Treatment of patients with initial and maintenance dosage, general findings; details: long term use of the low maintenance dosage
Procedure: Preferably, the treatment method further includes two treatment periods: an initial treatment, and a maintenance treatment. First, in the initial treatment, a patient administrates an initial dosage of 13-cis-retinoic acid for a period from about ten days to about five months. Thereafter, the patient administrates a lower maintenance dosage of 13-cis-retinoic acid.
The dosage is determined based on the patient's body weight. The initial dosage is in a range from about 10 mg to 80 mg 13-cis-retinoic acid daily (about 0.14 mg to about 1.1 mg per kilogram (kg) of body weight). For average men having a body weight about 160 lbs (72.6 kg), the average initial dosage is about 40 mg daily. The maintenance dosage is in a range from about 10 mg to 80 mg 13-cis-retinoic acid every three to seven days (about 0.14 mg to about 1.1 mg per kilogram (kg) of body weight). The average maintenance dosage for average men having a body weight about 160 lbs is about 40 mg every three to seven days. The dosages should be adjusted accordingly for children or those who weigh substantially less than or above the average body weight.
Furthermore, no serious adverse side effects were observed by using the described treatment. […]

[4] = about 40 mg daily 21 days, then 40 mg twice a week
[5] = 40 mg daily 14 days, then 40 mg twice a week

Question: Which “benefit of earlier therapeutic treatments” value (“benefit” for short) [1] does the source give for `CC(C)Cc1ccc(C(C)C(=O)O)cc1` (stereo not drawn) [Motrin, ibuprofen] here?
Answer: The value was “minimal or no benefit”.

Question: What about the “effect of past treatment” value [2] of the same compound?
Answer: Its value is “minimal effect”.

Question: How did the “benefit” value [1] turn out when `CC(=O)Oc1ccccc1C(=O)O` [Aspirin] was run?
Answer: The value was “minimal or no benefit”.

Question: What about the “effect of past treatment” value [2] of the same compound?
Answer: Its value is “minimal effect”.

Question: With `COc1ccc2cc([C@H](C)C(=O)O)ccc2c1` [Naprosyn, naproxen] as the compound, how does the “benefit” value [1] read?
Answer: The value was “minimal or no benefit”.

Question: How did the cervical spine tenderness [1, 4] turn out when `CC1=C(/C=C/C(C)=C/C=C/C(C)=C\C(=O)O)C(C)(C)CCC1` [Accutane, 13-cis-retinoic acid] was run?
Answer: Its cervical spine tenderness is “slow improvement”.

Question: What about the “fibro calcified peri-spinous nodules of cervical spine” value [1, 4] of the same compound?
Answer: Its value is “dissolution”.

Question: What about the “range of motion (ROM), cervical spine” value [1, 4] of the same compound?
Answer: The value was “increased range of motion”.

Question: And the “stiff and painful shoulder condition (old rotator cuff injury, right shoulder)” value ([1]; about 40 mg daily 21 days, then 40 mg twice a week, over the ensuing months)?
Answer: The value was “improvement”.

Question: What about the “blood-chemistries and hematology test results” value ([1]; continued maintenance dosage) of the same compound?
Answer: The value was “remained normal”.

Question: What about the “overall physical well being / musculoskeletal infirmities” value ([1]; continued maintenance dosage) of the same compound?
Answer: Its value is “no longer has any musculoskeletal infirmities”.

Question: What about the “right shoulder pain during the initial treatment” value ([1]; initial treatment about 40 mg daily) of the same compound?
Answer: The value was “increased right shoulder pain was noted, which then abated”.

Question: What about the physical side effects ([1]; long-term maintenance dosage 40 mg twice a week) of the same compound?
Answer: The physical side effects was “No physical side effects have been noted other than dry lips and skin in the early stages”.

Question: And the hand condition ([1]; person, about 40 mg daily for 21 days, then about 40 mg twice a week, over the ensuing months)?
Answer: Its hand condition is “gradual, but steady improvement”.

Question: What about the “hand puffiness and grip problems” value [2, 5] of the same compound?
Answer: Its value is “no longer exist”.

Question: And the side effects [2, 5]?
Answer: Its side effects is “minimal side effects”.

Question: What about the shoulder pain ([2]; about 40 mg daily 14 days, then 40 mg twice a week, after total of seven weeks, physical therapy continued) of the same compound?
Answer: Its shoulder pain is “completely abated”.

Question: What about the “range of movement (shoulder)” value ([2]; after total of seven weeks of treatment) of the same compound?
Answer: Its value is “returned to normal”.

Question: What about the “neck and hip pains” value ([2]; as of August, 2002 (start May 1, 2002)) of the same compound?
Answer: Its value is “almost completely abated”.

Question: What about the hand tenderness ([2]; if they play golf three to four days in a row) of the same compound?
Answer: The hand tenderness was “still exhibit a tinge of tenderness”.

Question: And the range of movement (osteoarthritis; after ten weeks treatment)?
Answer: The range of movement was “improvement”.

Question: And the “swelling and tenderness of the fingers” value (osteoarthritis; after ten weeks treatment)?
Answer: The value was “decreased”.

Question: What about the “pre-therapy and follow-up blood tests” value (osteoarthritis; human, in vivo) of the same compound?
Answer: The value was “normal”.

Question: And the symptoms (osteoarthritis; person, about 40 mg daily 21 days, then 40 mg twice a week, after ten weeks treatment)?
Answer: Its symptoms is “began to improve”.

Question: And the persistence of improvements (osteoarthritis; subsequent six month continuation of the maintenance dosage)?
Answer: Its persistence of improvements is “maintained”.

Question: What about the side effects (osteoarthritis; subsided after taking the maintenance dosage) of the same compound?
Answer: The side effects was “no side effects other than dry lips and skin”.

Question: And the “long term effect on musculoskeletal and connective tissue inflammations” value [3]?
Answer: Its value is “provides a long term control”.
